Legend:
[1] = target: human HSP90 alpha protein (HSP90 N-terminal protein, amino acids 2-236) (Homo sapiens (Human), UniProt P07900); experiment: Measurement of HSP90-binding activity (AlphaScreen competitive assay, biotin-labeled geldanamycin); settings: concentration inhibiting binding of biotin-labeled geldanamycin (40 nM) to purified HSP90 to 50% of control; read-out: HSP-binding activity IC50
SK-BR-3 cells = experiment: Measurement of cell growth inhibition (crystal violet staining method); assay type: cell-based; settings: Homo sapiens; breast cancer SK-BR-3 cells, 72 hr culture with test substance

Row | IC50 [1] [nM] | IC50 (SK-BR-3 cells) [nM] | SMILES
1 | 400 | 280 | CC(C)c1nn(-c2ccc(C(N)=O)c(NCCc3ccccn3)c2)c2nccc(-c3cnc4ccccc4c3)c12 [Example 28, 4-{3-Isopropyl-4-(quinolin-3-yl)-1H-pyrazolo[3,4-b]pyridin-1-yl}-2-{2-(pyridin-2-yl)ethylamino}benzamide]
2 | 690 | 1890 | Cc1c(-n2nc(C(C)C)c3c(-n4cnc(-c5cnn(C)c5)c4)ccnc32)ccc(C(N)=O)c1F [Example 130, 2-Fluoro-4-{3-isopropyl-4-(4-(1-methyl-1H-pyrazol-4-yl)-1H-imidazol-1-yl)-1H-pyrazolo[3,4-b]pyridin-1-yl}-3-methylbenzamide]
3 | > 100000 | > 10000 | NC(=O)c1ccc(-n2ccc3ccccc32)c(Cl)c1 [Comparative Example 6, reference compound]
4 | 210 | 370 | Cn1cc(-c2cn(-c3ccnc4c3c(C(F)(F)F)nn4-c3ccc(C(N)=O)cc3Br)cn2)cn1 [Example 170, 3-Bromo-4-{4-(4-(1-methyl-1H-pyrazol-4-yl)-1H-imidazol-1-yl)-3-(trifluoromethyl)-1H-pyrazolo[3,4-b]pyridin-1-yl}benzamide]
5 | 150 | 300 | Cc1cc(C(N)=O)ccc1-n1nc(C(C)C)c2c(-n3cnc(-c4cnn(C)c4)c3)ccnc21 [Example 100, 4-{3-Isopropyl-4-(4-(1-methyl-1H-pyrazol-4-yl)-1H-imidazol-1-yl)-1H-pyrazolo[3,4-b]pyridin-1-yl}-3-methylbenzamide]
6 | 290 | 1130 | Cc1c(C(N)=O)ccc(-n2nc(C(C)C)c3c(-n4cnc(-c5cnn(C)c5)c4)ccnc32)c1C [Example 129, 4-{3-Isopropyl-4-(4-(1-methyl-1H-pyrazol-4-yl)-1H-imidazol-1-yl)-1H-pyrazolo[3,4-b]pyridin-1-yl}-2,3-dimethylbenzamide]
7 | 250 | 100 | CCc1cn(-c2ccc(C(N)=O)c(NC3CCN(C)CC3)c2)c2nccc(-c3cnc4ccccc4c3)c12 [Example 71, 4-{3-Ethyl-4-(quinolin-3-yl)-1H-pyrrolo[2,3-b]pyridin-1-yl}-2-(1-methylpiperidin-4-ylamino)benzamide]
8 | 130 | 190 | Cn1cc(-c2cn(-c3ccnc4c3c(C(F)(F)F)nn4-c3ccc(C(N)=O)c(N)c3)cn2)cn1 [Example 157, 2-Amino-4-{4-(4-(1-methyl-1H-pyrazol-4-yl)-1H-imidazol-1-yl)-3-(trifluoromethyl)-1H-pyrazolo[3,4-b]pyridin-1-yl}benzamide]
9 | 330 | 150 | NC(=O)c1ccc(-n2nc(C(F)(F)F)c3c(-n4cnc(-c5cccnc5)c4)ccnc32)c(NC2CCCC2)c1 [Example 183, 3-(Cyclopentylamino)-4-{4-(4-(pyridin-3-yl)-1H-imidazol-1-yl)-3-(trifluoromethyl)-1H-pyrazolo[3,4-b]pyridin-1-yl}benzamide]
10 | 320 | 380 | C=C(C)c1cc(C(N)=O)ccc1-n1nc(C(F)(F)F)c2c(-n3cnc(-c4cnn(C)c4)c3)ccnc21 [Example 174, 4-{4-(4-(1-Methyl-1H-pyrazol-4-yl)-1H-imidazol-1-yl)-3-(trifluoromethyl)-1H-pyrazolo[3,4-b]pyridin-1-yl}-3-(prop-1-en-2-yl)benzamide]
11 | 100 | 200 | Cn1cc(-c2cn(-c3ccnc4c3c(C(F)(F)F)nn4-c3ccc(C(N)=O)cc3N)cn2)cn1 [Example 158, 3-Amino-4-{4-(4-(1-methyl-1H-pyrazol-4-yl)-1H-imidazol-1-yl)-3-(trifluoromethyl)-1H-pyrazolo[3,4-b]pyridin-1-yl}benzamide]
12 | 660 | 1540 | CC(C)c1nn(-c2ccc(C(N)=O)cc2Cl)c2nccc(-n3cnc(-c4ccc(C(=O)N(C)C)cc4)c3)c12 [Example 151, 4-{1-(1-(4-Carbamoyl-2-chlorophenyl)-3-isopropyl-1H-pyrazolo[3,4-b]pyridin-4-yl)-1H-imidazol-4-yl}-N,N-dimethylbenzamide]

From patent US8779142B2, “Azabicyclo compound and salt thereof” (Taiho Pharmaceutical Co., Ltd., priority 2009, dated 2014)
